Test results reported in patent publication US8961959B2, “Glucosylceramide synthase inhibitors and therapeutic methods using the same” (The Regents of the University of Michigan, priority 2011, dated 2015).

Assays:
[1] = target: T1, glucosylceramide synthase (GCS) (Canis lupus familiaris, UniProt A0A8I3MXG6); assay: GCS activity, broken cell (MDCK cell homogenate) assay; assay type: biochemical, canine
T1 construct: Madin-Darby canine kidney (MDCK) cell homogenates (120 μg of protein) were incubated; endogenous in cells; host or cells: MDCK (Madin-Darby canine kidney) cell homogenate
T1 sequence (A0A8I3MXG6 1-394): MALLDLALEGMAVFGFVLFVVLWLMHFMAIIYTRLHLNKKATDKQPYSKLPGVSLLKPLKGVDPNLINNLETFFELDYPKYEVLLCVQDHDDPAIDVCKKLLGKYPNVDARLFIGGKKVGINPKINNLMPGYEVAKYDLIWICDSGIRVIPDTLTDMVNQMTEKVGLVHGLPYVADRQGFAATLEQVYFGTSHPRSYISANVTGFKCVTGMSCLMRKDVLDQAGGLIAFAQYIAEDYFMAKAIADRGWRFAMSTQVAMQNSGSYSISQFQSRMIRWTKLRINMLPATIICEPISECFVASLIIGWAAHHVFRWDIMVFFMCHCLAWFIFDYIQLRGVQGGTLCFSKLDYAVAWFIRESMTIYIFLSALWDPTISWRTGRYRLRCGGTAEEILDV
Protocol: Enzyme activity was measured as described previously (9). Madin-Darby canine kidney (MDCK) cell homogenates (120 μg of protein) were incubated with uridine diphosphate-[^3H]glucose (100,000 cpm) and liposomes consisting of 85 μg of octanoylsphingosine, 570 μg of dioleoylphosphatidylcholine, and 100 μg of sodium sulfatide in a 200 μL reaction mixture and kept for 1 h at 37° C.

MDR1-MDCKII cells = assay: GCS inhibition (GlcCer production) in MDCKII cells stably expressing human MDR1; assay type: cell-based, canine; details: for IC50: Canis lupus familiaris, inhibition of GlcCer production in MDCKII cells stably expressing human MDR1, 24 h, read-out: MDR-MDCK IC50; for MDR/WT: ratio of MDR1-MDCKII IC50 divided by WT-MDCKII IC50
Protocol: (§1) Parental (WT-)MDCKII cells and MDCKII cells retrovirally transduced with human MDR-1 cDNA were obtained from the Netherlands Cancer Institute. Both cell lines were routinely maintained in medium consisting of Opti-MEM/F 12 (1:1), 5% FBS, 100 U/mL of penicillin, 100 μg/mL streptomycin and […] L-glutamine. MDCKII cells were newly thawed from frozen ampules every two months.
Stock solutions of water-insoluble glycosphingolipid inhibitors (100 mM) were prepared by dissolving each inhibitor into 100% ethanol as previously described (3). The inhibitor-ethanol solutions then were diluted 50× into 2 mM delipidated bovine serum albumin-phosphate buffered saline solution to make water-soluble glycosphingolipid inhibitor-bovine serum albumin complexes. The inhibitor-bovine serum album complexes were sterile-filtered and stored at −20° C. Prior to use, portions of the inhibitor-bovine serum albumin complexes were further diluted with Opti-F12 to make treatment solutions. Equal amounts of bovine serum albumin and ethanol were added into the control cultures. WT and MDR1-MDCKII cells (5×10^5) were seeded into 10-cm culture dishes containing 10 ml of Opti-F12 with 5% FBS. […]
(§2) Following inhibitor treatment, whole cellular lipids of wild type and MDR1-MDCKII cells were extracted as previously described in detail (10). Briefly, cells were washed with ice-cold phosphate buffered saline, fixed by methanol, and collected with rubber scraper. Chloroform was then added to yield a theoretical ratio of chloroform:methanol:water at 1:2:0.8 (v/v/v) to form a mono-phase. Cell debris and proteins were removed by centrifugation at 2200×g for 30 min. The supernatants were portioned by adding chloroform and 0.9% NaCl. The lower organic phases containing neutral glycosphingolipids lipids were washed with methanol and 0.9% NaCl, and subjected to base- and acid-hydrolysis (10). A portion of purified glycosphingolipids normalized to 100 nmol of total phospholipids was analyzed by high performance thin layer chromatography. The thin layer chromatography separations were processed twice. The plate pretreated with 1% sodium borate was first developed in a solvent system consisting of chloroform/methanol (98/2, v/v). After air drying, the plate was then developed in a solvent system containing chloroform/methanol/water (70/30/4, v/v/v). The levels of glucosylceramide were detected by charring with 8% cupric sulfate in 8% phosphoric acid, and quantified by densitometric scanning using ImageJ, NIH Image.

WT-MDCKII cells = assay: GCS inhibition (GlcCer production) in whole wild-type MDCKII cells; assay type: cell-based, canine; details: Canis lupus familiaris, MDCK-II; inhibition of GlcCer production in whole wild-type MDCKII cells, 24 h; read-out: WT-MDCK IC50
Protocol: as §1, with “months. Protein levels of MDR1 in MDR1-MDCKII cells were measured monthly, and MDR1-MDCKII cell passages were immediately terminated when a reduction of MDR1 levels was observed by Western blot using anti-human MDR1 monoclonal antibody (Abcam C219).” for “months.”
Stock solutions of water-insoluble glycosphingolipid inhibitors (100 mM) were prepared by dissolving each inhibitor into 100% ethanol as previously described (3). The inhibitor-ethanol solutions then were diluted 50× into 2 mM delipidated bovine serum albumin-phosphate buffered saline solution to make water-soluble glycosphingolipid inhibitor-bovine serum albumin complexes. The inhibitor-bovine serum album complexes were sterile-filtered and stored at −20° C. Prior to use, portions of the inhibitor-bovine serum albumin complexes were further diluted with Opti-F12 to make treatment solutions. Equal amounts of bovine serum albumin and ethanol were added into the control cultures. WT and MDR1-MDCKII cells (5×10^5) were seeded into 10-cm culture dishes containing 10 ml of Opti-F12 with 5% FBS. After 24 hours, the medium was replaced with fresh serum-free Opti-F12 medium, and cells were exposed to candidate GCS inhibitors at concentrations of 0, 1, 3, 10, 30, 100 and 300 nM for 24 hours.
as §2, with “Image. Image data was analyzed, and the IC50 of each inhibitor was calculated using GraphPad Prism (version 5.03).” for “Image.”

[2] = cited from earlier work
MDR1 = target: T2, MDR1 (Homo sapiens, UniProt P08183); assay: [3H]Vinblastine transport in MDR1-MDCKII cells; assay type: cell-based; details: 1-100 μM, 2 h, relative to vehicle
T2 construct: host or cells: MDCKII (canine kidney) cells retrovirally transduced with human MDR-1 cDNA
Protocol: MDR1- and WT-MDCKII cells were grown to confluence on Transwell filters (12 well plates) in DMEM+10% FBS. […] Uptake was measured over 2 hours at 37° C. At that time, uptake was stopped by washing each side of the membrane 3× with ice-cold PBS. Vinblastine uptake into the cells, after correction for any remaining adherent extracellular contamination, was calculated as described previously (11). To investigate the effect of experimental drugs on MDR-mediated transport, those compounds were added to the apical chamber (1-100 μM) during vinblastine uptake and the uptake results expressed as a % of that with vehicle alone.

T2 sequence (P08183 whole entry): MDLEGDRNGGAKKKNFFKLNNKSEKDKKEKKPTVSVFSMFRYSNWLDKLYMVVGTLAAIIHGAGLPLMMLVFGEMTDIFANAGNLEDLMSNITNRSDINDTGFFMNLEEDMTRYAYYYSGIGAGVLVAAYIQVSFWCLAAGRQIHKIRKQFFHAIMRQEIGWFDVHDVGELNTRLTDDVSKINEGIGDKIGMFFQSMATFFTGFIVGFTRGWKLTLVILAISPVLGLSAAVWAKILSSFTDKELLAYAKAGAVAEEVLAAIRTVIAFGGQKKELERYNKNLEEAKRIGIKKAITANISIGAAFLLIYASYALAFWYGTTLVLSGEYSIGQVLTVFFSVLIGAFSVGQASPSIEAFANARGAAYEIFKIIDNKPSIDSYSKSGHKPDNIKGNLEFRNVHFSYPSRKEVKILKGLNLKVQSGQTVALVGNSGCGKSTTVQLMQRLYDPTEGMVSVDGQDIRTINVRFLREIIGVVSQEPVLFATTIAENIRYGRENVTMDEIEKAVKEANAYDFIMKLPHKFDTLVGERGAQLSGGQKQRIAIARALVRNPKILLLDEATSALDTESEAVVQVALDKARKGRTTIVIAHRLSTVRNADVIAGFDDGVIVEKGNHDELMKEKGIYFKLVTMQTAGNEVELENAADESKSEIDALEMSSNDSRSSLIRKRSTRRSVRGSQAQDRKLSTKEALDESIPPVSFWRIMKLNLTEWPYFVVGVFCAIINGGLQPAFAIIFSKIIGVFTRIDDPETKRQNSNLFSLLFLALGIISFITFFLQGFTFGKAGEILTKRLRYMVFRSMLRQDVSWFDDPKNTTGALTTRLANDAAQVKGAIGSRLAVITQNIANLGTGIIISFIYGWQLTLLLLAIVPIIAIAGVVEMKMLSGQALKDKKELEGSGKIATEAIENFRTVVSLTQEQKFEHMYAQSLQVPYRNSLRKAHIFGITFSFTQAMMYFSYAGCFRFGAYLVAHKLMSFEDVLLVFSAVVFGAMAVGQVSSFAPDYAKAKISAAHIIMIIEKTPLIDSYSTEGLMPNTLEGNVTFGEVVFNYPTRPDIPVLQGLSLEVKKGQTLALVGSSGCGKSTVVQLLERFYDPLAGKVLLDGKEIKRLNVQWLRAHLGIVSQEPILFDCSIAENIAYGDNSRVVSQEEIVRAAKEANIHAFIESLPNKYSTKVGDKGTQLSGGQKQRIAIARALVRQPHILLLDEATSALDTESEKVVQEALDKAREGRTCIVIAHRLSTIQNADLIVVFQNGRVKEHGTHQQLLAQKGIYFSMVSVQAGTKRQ

| IC50 [1] [nM] | [3H]vinblastine uptake into MDR1-MDCKII cells (MDR1) | Compound | IC50 (MDR1-MDCKII cells) [nM] | MDR/WT (MDR1-MDCKII cells) | IC50 (WT-MDCKII cells) [nM] | effect on mouse body weight [2] | activity in the MDR1-MDCKII line (MDR1-MDCKII cells; in words) |
| --- | --- | --- | --- | --- | --- | --- | --- |
| 158 |  | CN(C(=O)CCc1ccccc1)[C@H](CN1CCCC1)[C@H](O)c1ccc2c(c1)OCCO2 [Compound 3j, N-((1R,2R)-1-(2,3-dihydrobenzo[b][1,4]dioxin-6-yl)-1-hydroxy-3-(pyrrolidin-1-yl)propan-2-yl)-N-methyl-3-phenylpropanamide] | 1250 | 21 | 59.4 |  |  |
| 80 |  | O=C(CCCc1ccccc1)N[C@H](CN1CCCC1)[C@H](O)c1ccc2c(c1)OCCO2 [Compound 3e] | 1440 | 5.7 | 254 |  |  |
|  |  | CCCCN1C[C@H](O)[C@@H](O)[C@H](O)[C@H]1CO [NB-DNJ, N-butyldeoxynojirimycin] |  |  |  | reduce mouse body weight |  |
| 144 |  | O=C(N[C@H](CN1CCCC1)[C@H](O)c1ccc2c(c1)OCCO2)OCc1ccccc1 [Compound 3b] | 47.1 | 6.5 | 7.3 |  |  |
| 134 |  | O=C(CCc1ccccc1)N[C@H](CN1CCCC1)[C@H](O)c1ccc2c(c1)OCCO2 [Compound 3c] | 86.7 | 3.7 | 23.5 |  |  |
| > 2000 |  | O=C(Cc1ccccc1)N[C@H](CN1CCCC1)[C@H](O)c1ccc2c(c1)OCCO2 [Compound 3d, N-((1R,2R)-1-(2,3-dihydrobenzo[b][1,4]dioxin-6-yl)-1-hydroxy-3-(pyrrolidin-1-yl)propan-2-yl)-2-phenylacetamido] |  |  |  |  |  |
| 379 |  | O=C(/C=C/c1ccccc1)N[C@H](CN1CCCC1)[C@H](O)c1ccc2c(c1)OCCO2 [Compound 3f, N-((1R,2R)-1-(2,3-dihydrobenzo[b][1,4]dioxin-6-yl)-1-hydroxy-3-(pyrrolidin-1-yl)propan-2-yl)cinnamamide] | 389 | 4.8 | 80.7 |  |  |
| 107 | dose dependent increase | O=C(N[C@H](CN1CCCC1)[C@H](O)c1ccc2c(c1)OCCO2)C1Cc2ccccc2C1 [Compound 3i, N-((1R,2R)-1-(2,3-dihydrobenzo[b][1,4]dioxin-6-yl)-1-hydroxy-3-(pyrrolidin-1-yl)propan-2-yl)-2,3-dihydro-1H-indene-2-carboxamide] | 3210 | 21 | 151 |  | loss of activity |
| 90 |  | O=C(N[C@H](CN1CCCC1)[C@H](O)c1ccc2c(c1)OCCO2)C1CC1c1ccccc1 (stereo partly drawn) [Compound 3g, N-((1R,2R)-1-(2,3-dihydrobenzo[b][1,4]dioxin-6-yl)-1-hydroxy-3-(pyrrolidin-1-yl)propan-2-yl)-2-phenylcyclopropanecarboxamide] | 78.1 | 2.9 | 27.3 |  |  |
